Test results published in the supplement of paper PMC10307832.

Compound: Cc1ccc(NC(=O)c2ccc(CN3CCN(C)CC3)cc2)cc1Nc1nccc(-c2cccnc2)n1 [Imatinib] + C[C@]1(O)C[C@@H](c2nc(-c3ccc4ccc(-c5ccccc5)nc4c3)c3c(N)nccn32)C1 [Linsitinib] (partner 1 µM)
Assay: relative viability (nuclei count vs DMSO), 5 days (fraction); higher = more cells survive
How it was run: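 Medians of duplicate plates are given as relative viability. That measure is the nuclei count in treated wells divided by the count in vehicle wells. Counts were taken on 4× images of lung cancer cell lines in 1536-well plates, 5 days after pin-tool dosing the day after seeding with one drug alone or a fixed anchor-drug dose plus five library-drug doses (not always all listed) in √10 steps.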

NCI-H650
relative viability (first compound 0.02 µM): 1.27
relative viability (first compound 0.06325 µM): 0.86
relative viability (first compound 0.2 µM): 0.95
relative viability (first compound 0.6325 µM): 1.05
relative viability (first compound 2 µM): 0.861

NCI-H661
relative viability (first compound 0.02 µM): 0.553
relative viability (first compound 0.06325 µM): 0.345
relative viability (first compound 0.2 µM): 0.611
relative viability (first compound 0.6325 µM): 0.362
relative viability (first compound 2 µM): 0.56

NCI-H727
relative viability (first compound 0.02 µM): 0.301
relative viability (first compound 0.06325 µM): 0.249
relative viability (first compound 0.2 µM): 0.277
relative viability (first compound 0.6325 µM): 0.299
relative viability (first compound 2 µM): 0.347

NCI-H838
relative viability (first compound 0.02 µM): 1.12
relative viability (first compound 0.06325 µM): 1.37
relative viability (first compound 0.2 µM): 1.3
relative viability (first compound 0.6325 µM): 1.03
relative viability (first compound 2 µM): 1.02

NCI-H1299
relative viability (first compound 0.02 µM): 1.14
relative viability (first compound 0.06325 µM): 1.08
relative viability (first compound 0.2 µM): 1.04
relative viability (first compound 0.6325 µM): 0.983

NCI-H1355
relative viability (first compound 0.02 µM): 0.865
relative viability (first compound 0.2 µM): 0.846
relative viability (first compound 0.6325 µM): 0.841
relative viability (first compound 2 µM): 0.871

NCI-H1395
relative viability (first compound 0.02 µM): 0.978
relative viability (first compound 0.2 µM): 1.04
relative viability (first compound 0.6325 µM): 1.02
relative viability (first compound 2 µM): 0.975

NCI-H1437
relative viability (first compound 0.06325 µM): 1.18
relative viability (first compound 0.2 µM): 1.42
relative viability (first compound 2 µM): 1.04

NCI-H1563
relative viability (first compound 0.02 µM): 1.15
relative viability (first compound 0.06325 µM): 1.31
relative viability (first compound 0.2 µM): 1.22
relative viability (first compound 0.6325 µM): 1.25
relative viability (first compound 2 µM): 1.16

NCI-H1651
relative viability (first compound 0.02 µM): 1.09
relative viability (first compound 0.06325 µM): 1.14
relative viability (first compound 0.2 µM): 1.21
relative viability (first compound 0.6325 µM): 0.946
relative viability (first compound 2 µM): 1.11

NCI-H1666
relative viability (first compound 0.02 µM): 0.718
relative viability (first compound 0.06325 µM): 0.849
relative viability (first compound 0.6325 µM): 0.986
relative viability (first compound 2 µM): 0.857

NCI-H1703
relative viability (first compound 0.02 µM): 0.629
relative viability (first compound 0.06325 µM): 0.204
relative viability (first compound 0.2 µM): 0.449
relative viability (first compound 0.6325 µM): 0.418
relative viability (first compound 2 µM): 0.138

NCI-H1755
relative viability (first compound 0.02 µM): 1.05
relative viability (first compound 0.06325 µM): 1.08
relative viability (first compound 0.6325 µM): 0.979
relative viability (first compound 2 µM): 0.994

NCI-H1792
relative viability (first compound 0.02 µM): 0.623
relative viability (first compound 0.06325 µM): 0.332
relative viability (first compound 0.2 µM): 0.502
relative viability (first compound 0.6325 µM): 0.317
relative viability (first compound 2 µM): 0.566

NCI-H1793
relative viability (first compound 0.02 µM): 1.09
relative viability (first compound 0.2 µM): 1.06
relative viability (first compound 0.6325 µM): 0.96

NCI-H1915
relative viability (first compound 0.02 µM): 1.09
relative viability (first compound 0.2 µM): 1.17
relative viability (first compound 0.6325 µM): 1.08
relative viability (first compound 2 µM): 1.08

NCI-H1944
relative viability (first compound 0.02 µM): 1.21
relative viability (first compound 0.2 µM): 1.12
relative viability (first compound 0.6325 µM): 1.07
relative viability (first compound 2 µM): 1.18

NCI-H1975
relative viability (first compound 0.02 µM): 0.977
relative viability (first compound 0.06325 µM): 0.965
relative viability (first compound 0.2 µM): 1.07
relative viability (first compound 0.6325 µM): 0.843
relative viability (first compound 2 µM): 0.958

NCI-H1993
relative viability (first compound 0.06325 µM): 0.73
relative viability (first compound 0.2 µM): 0.747
relative viability (first compound 0.6325 µM): 0.72
relative viability (first compound 2 µM): 0.707

NCI-H2009
relative viability (first compound 0.02 µM): 1.19
relative viability (first compound 0.06325 µM): 1.32
relative viability (first compound 0.2 µM): 1.21
relative viability (first compound 0.6325 µM): 1.24
relative viability (first compound 2 µM): 1.24

NCI-H2023
relative viability (first compound 0.02 µM): 0.778
relative viability (first compound 0.06325 µM): 0.871
relative viability (first compound 0.2 µM): 0.796
relative viability (first compound 0.6325 µM): 0.682
relative viability (first compound 2 µM): 0.719

NCI-H2085
relative viability (first compound 0.02 µM): 0.93
relative viability (first compound 0.06325 µM): 0.823
relative viability (first compound 0.2 µM): 1.11
relative viability (first compound 0.6325 µM): 0.95
relative viability (first compound 2 µM): 0.825

NCI-H2087
relative viability (first compound 0.02 µM): 1.09
relative viability (first compound 0.06325 µM): 1
relative viability (first compound 0.2 µM): 1.07
relative viability (first compound 0.6325 µM): 0.991
relative viability (first compound 2 µM): 0.85

NCI-H2126
relative viability (first compound 0.02 µM): 0.724
relative viability (first compound 0.2 µM): 0.728
relative viability (first compound 0.6325 µM): 0.742
relative viability (first compound 2 µM): 0.758

NCI-H2228
relative viability (first compound 0.02 µM): 0.742
relative viability (first compound 0.06325 µM): 0.555
relative viability (first compound 0.2 µM): 0.678
relative viability (first compound 0.6325 µM): 0.482
relative viability (first compound 2 µM): 0.638

NCI-H2347
relative viability (first compound 0.02 µM): 0.943
relative viability (first compound 0.06325 µM): 0.839
relative viability (first compound 0.2 µM): 0.965
relative viability (first compound 2 µM): 0.978

NCI-H2405
relative viability (first compound 0.02 µM): 1.05
relative viability (first compound 0.2 µM): 0.869
relative viability (first compound 0.6325 µM): 0.762
relative viability (first compound 2 µM): 0.956

NCI-H3122
relative viability (first compound 0.02 µM): 1
relative viability (first compound 0.06325 µM): 1.13
relative viability (first compound 0.2 µM): 1.14
relative viability (first compound 0.6325 µM): 1.03
relative viability (first compound 2 µM): 1.04

PC-3 [JPC-3]
relative viability (first compound 0.2 µM): 1.05
relative viability (first compound 0.6325 µM): 1.04

PC-14
relative viability (first compound 0.06325 µM): 0.97
relative viability (first compound 0.2 µM): 1.06
relative viability (first compound 0.6325 µM): 0.984
relative viability (first compound 2 µM): 1.01

RERF-LC-KJ
relative viability (first compound 0.02 µM): 0.879
relative viability (first compound 0.06325 µM): 1.08
relative viability (first compound 0.2 µM): 1.03
relative viability (first compound 0.6325 µM): 0.872
relative viability (first compound 2 µM): 0.94

SK-LU-1
relative viability (first compound 0.02 µM): 1.58
relative viability (first compound 0.06325 µM): 1.22
relative viability (first compound 0.2 µM): 1.15
relative viability (first compound 2 µM): 0.951

SK-MES-1
relative viability (first compound 0.02 µM): 1.07
relative viability (first compound 0.06325 µM): 1.19
relative viability (first compound 0.2 µM): 1.23
relative viability (first compound 0.6325 µM): 1.06
relative viability (first compound 2 µM): 1.19

SW 1573
relative viability (first compound 0.02 µM): 0.879
relative viability (first compound 0.06325 µM): 0.965
relative viability (first compound 0.2 µM): 0.799
relative viability (first compound 0.6325 µM): 0.685
relative viability (first compound 2 µM): 0.809

UMC-11
relative viability (first compound 0.02 µM): 1.14
relative viability (first compound 0.06325 µM): 1.57
relative viability (first compound 0.2 µM): 1.05
relative viability (first compound 0.6325 µM): 1.08
relative viability (first compound 2 µM): 1.06
